Measured values from PubChem BioAssay (NCI).
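Here, GI50 denotes the concentration required for 50% inhibition of growth. At the TGI there is no net growth.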

Key:
Experiment in all cases: NCI-60 cell line screen, 384-well format
SF-295 CNS = test system: SF-295 CNS
MDA-MB-231 breast = test system: MDA-MB-231 breast
PC-3 prostate = test system: PC-3 prostate
TK-10 renal = test system: TK-10 renal
UACC-257 melanoma = test system: UACC-257 melanoma
LOX IMVI melanoma = test system: LOX IMVI melanoma
OVCAR-3 ovarian = test system: OVCAR-3 ovarian
SN12C renal = test system: SN12C renal
M14 melanoma = test system: M14 melanoma
NCI-H226 lung = test system: NCI-H226 lung
NCI-H23 lung = test system: NCI-H23 lung
HCT-116 colon = test system: HCT-116 colon
MALME-3M melanoma = test system: MALME-3M melanoma
HCT-15 colon = test system: HCT-15 colon
OVCAR-8 ovarian = test system: OVCAR-8 ovarian
SF-539 CNS = test system: SF-539 CNS
OVCAR-5 ovarian = test system: OVCAR-5 ovarian
SNB-75 CNS = test system: SNB-75 CNS
K-562 leukemia = test system: K-562 leukemia
A498 renal = test system: A498 renal
EKVX NSCLC = test system: EKVX NSCLC
HT29 colon = test system: HT29 colon
IGROV1 ovarian = test system: IGROV1 ovarian
CCRF-CEM leukemia = test system: CCRF-CEM leukemia
RXF 393 renal = test system: RXF 393 renal
ACHN renal = test system: ACHN renal
SNB-19 CNS = test system: SNB-19 CNS
HS 578T breast = test system: HS 578T breast
SF-268 CNS = test system: SF-268 CNS
T-47D breast = test system: T-47D breast
U251 glioblastoma = test system: U251 glioblastoma
SK-MEL-2 melanoma = test system: SK-MEL-2 melanoma
UO-31 renal = test system: UO-31 renal
HOP-62 NSCLC = test system: HOP-62 NSCLC
NCI-H322M lung = test system: NCI-H322M lung
KM12 colon = test system: KM12 colon
MCF7 breast = test system: MCF7 breast
MDA-MB-435 melanoma = test system: MDA-MB-435 melanoma
786-0 renal = test system: 786-0 renal
SK-MEL-28 melanoma = test system: SK-MEL-28 melanoma
DU-145 prostate = test system: DU-145 prostate
NCI-H522 lung = test system: NCI-H522 lung
MOLT-4 leukemia = test system: MOLT-4 leukemia
RPMI-8226 leukemia = test system: RPMI-8226 leukemia
A549 NSCLC = test system: A549 NSCLC
HL-60(TB) leukemia = test system: HL-60(TB) leukemia
BT-549 breast = test system: BT-549 breast
UACC-62 melanoma = test system: UACC-62 melanoma
SW-620 colon = test system: SW-620 colon
HOP-92 NSCLC = test system: HOP-92 NSCLC
OVCAR-4 ovarian = test system: OVCAR-4 ovarian
MDA-MB-468 breast = test system: MDA-MB-468 breast
CAKI-1 renal = test system: CAKI-1 renal
SK-OV-3 ovarian = test system: SK-OV-3 ovarian
NCI/ADR-RES ovarian = test system: NCI/ADR-RES ovarian

## Clc1ccc(C(c2ccccc2Cl)C(Cl)Cl)cc1 (stereo not given)
SF-295 CNS
  GI50: 16.2 µM
  TGI: 29.8 µM
MDA-MB-231 breast
  GI50: 16.4 µM
  TGI: 30.1 µM
PC-3 prostate
  GI50: 14.3 µM
  TGI: 27.6 µM
TK-10 renal
  GI50: 16.7 µM
  TGI: 30.6 µM
UACC-257 melanoma
  GI50: 17.6 µM
  TGI: 31.5 µM
LOX IMVI melanoma
  GI50: 16.4 µM
  TGI: 30.1 µM
OVCAR-3 ovarian
  GI50: 15.5 µM
  TGI: 29 µM
SN12C renal
  GI50: 15.7 µM
  TGI: 29.3 µM
M14 melanoma
  GI50: 16.6 µM
  TGI: 30.4 µM
NCI-H226 lung
  GI50: 16.2 µM
  TGI: 29.9 µM
NCI-H23 lung
  GI50: 17 µM
  TGI: 30.9 µM
HCT-116 colon
  GI50: 14.5 µM
  TGI: 28.2 µM
MALME-3M melanoma
  GI50: 14.7 µM
  TGI: 27.9 µM
HCT-15 colon
  GI50: 13.9 µM
  TGI: 27.3 µM
OVCAR-8 ovarian
  GI50: 17 µM
  TGI: 30.9 µM
SF-539 CNS
  GI50: 17.3 µM
  TGI: 31.2 µM
OVCAR-5 ovarian
  GI50: 16.8 µM
  TGI: 30.7 µM
SNB-75 CNS
  GI50: 17.8 µM
  TGI: 32.3 µM
K-562 leukemia
  GI50: 17.9 µM
  TGI: 32.1 µM
A498 renal
  GI50: 17.4 µM
  TGI: 31.3 µM
EKVX NSCLC
  GI50: 17.3 µM
  TGI: 31.2 µM
HT29 colon
  GI50: 15.1 µM
  TGI: 28.9 µM
IGROV1 ovarian
  GI50: 15 µM
  TGI: 28.4 µM
CCRF-CEM leukemia
  GI50: 16.2 µM
  TGI: 29.8 µM
RXF 393 renal
  GI50: 13.2 µM
  TGI: 26.1 µM
ACHN renal
  GI50: 16 µM
  TGI: 29.6 µM
SNB-19 CNS
  GI50: 17.2 µM
  TGI: 31.2 µM
HS 578T breast
  GI50: 17 µM
  TGI: 30.8 µM
SF-268 CNS
  GI50: 16.7 µM
  TGI: 30.5 µM
T-47D breast
  GI50: 15.5 µM
  TGI: 29.1 µM
U251 glioblastoma
  GI50: 16.6 µM
  TGI: 30.5 µM
SK-MEL-2 melanoma
  GI50: 19.1 µM
  TGI: 33.2 µM
UO-31 renal
  GI50: 16.6 µM
  TGI: 30.5 µM
HOP-62 NSCLC
  GI50: 19.5 µM
  TGI: 33.7 µM
NCI-H322M lung
  GI50: 18.8 µM
  TGI: 33.2 µM
KM12 colon
  GI50: 16.3 µM
  TGI: 30.1 µM
MCF7 breast
  GI50: 17.6 µM
  TGI: 31.7 µM
MDA-MB-435 melanoma
  GI50: 16.8 µM
  TGI: 30.7 µM
786-0 renal
  GI50: 16.2 µM
  TGI: 29.9 µM
SK-MEL-28 melanoma
  GI50: 17.6 µM
  TGI: 31.5 µM
DU-145 prostate
  GI50: 16.8 µM
  TGI: 30.7 µM
NCI-H522 lung
  GI50: 12.9 µM
  TGI: 25.7 µM
MOLT-4 leukemia
  GI50: 5.16 µM
  TGI: 17.6 µM
RPMI-8226 leukemia
  GI50: 14 µM
  TGI: 27 µM
A549 NSCLC
  GI50: 16.9 µM
  TGI: 31 µM
HL-60(TB) leukemia
  GI50: 10.5 µM
  TGI: 22.4 µM
BT-549 breast
  GI50: 18.5 µM
  TGI: 32.6 µM
UACC-62 melanoma
  GI50: 17 µM
  TGI: 30.8 µM
SW-620 colon
  GI50: 15.1 µM
  TGI: 28.7 µM
HOP-92 NSCLC
  GI50: 15.1 µM
  TGI: 28.5 µM
OVCAR-4 ovarian
  GI50: 15.7 µM
  TGI: 29.3 µM
MDA-MB-468 breast
  GI50: 10.7 µM
  TGI: 22.7 µM
CAKI-1 renal
  GI50: 12.9 µM
  TGI: 25.7 µM
SK-OV-3 ovarian
  GI50: 16.1 µM
  TGI: 29.8 µM
NCI/ADR-RES ovarian
  GI50: 17.4 µM
  TGI: 31.4 µM
